Reference: patent US9284333B2, “Fused pyrroledicarboxamides and their use as pharmaceuticals” (SANOFI, priority 2012, dated 2016)
pIC50: −log10 of the molar value.

molecular target: Human TASK-1 channels (Homo sapiens (Human), UniProt O14649); experiment: Determination of the activity on the TASK-1 channel in Xenopus oocytes (two-microelectrode voltage clamp); format: cell-based; details: compound concentration 5 μM
Summary of the method: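 Current during 500 ms pulses to 40 mV from a −90 mV hold was recorded in oocytes expressing human TASK-1 for two days after cRNA injection. Compounds were added cumulatively to the ND96 bath (pH 7.4, room temperature). IC50 came from dose-response fitting of inhibition relative to pre-compound current.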

Sequence of Human TASK-1 channels (O14649 whole entry): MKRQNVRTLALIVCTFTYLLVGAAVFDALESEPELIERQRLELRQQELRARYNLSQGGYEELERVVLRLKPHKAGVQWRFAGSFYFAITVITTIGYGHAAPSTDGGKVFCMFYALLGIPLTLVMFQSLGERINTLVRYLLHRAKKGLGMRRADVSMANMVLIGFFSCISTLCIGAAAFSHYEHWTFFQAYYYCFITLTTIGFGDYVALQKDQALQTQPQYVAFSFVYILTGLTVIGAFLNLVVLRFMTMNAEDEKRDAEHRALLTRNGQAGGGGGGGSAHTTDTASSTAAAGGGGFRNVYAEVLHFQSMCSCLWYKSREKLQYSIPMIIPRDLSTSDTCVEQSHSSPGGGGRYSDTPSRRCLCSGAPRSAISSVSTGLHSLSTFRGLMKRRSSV

| inhibition at 5 µM | TASK-1 inhibition [%] at 5 μM | Compound |
| --- | --- | --- |
| 84% |  | C[C@H]1CCCN1C(=O)c1cc(C(=O)NCc2c(Cl)cccc2Cl)c2n1CCOC2 [16ag, 6-((S)-2-Methyl-pyrrolidine-1-carbonyl)-3,4-dihydro-1H-pyrrolo[2,1-c][1,4]oxazine-8-carboxylic acid 2,6-dichloro-benzylamide] |
|  | 91% | 3,4-Dihydro-1H-pyrrolo[2,1-c][1,4]oxazine-6,8-dicarboxylic acid 6-[(1H-indol-6-ylmethyl)-amide] 8-[((R)-1-phenyl-propyl)-amide] [16je] |
| 70% |  | CC[C@H](NC(=O)c1cc(C(=O)N[C@H](C)c2ncccn2)c2n1CCOC2)c1ccccc1 [16kg, 3,4-Dihydro-1H-pyrrolo[2,1-c][1,4]oxazine-6,8-dicarboxylic acid 6-[((S)-1-phenyl-propyl)-amide] 8-[((R)-1-pyrimidin-2-yl-ethyl)-amide]] |
| 90% |  | C#CC1CCCN1C(=O)c1cc(C(=O)N[C@H](CC)c2ccccc2)c2n1CCOC2 (stereo partly drawn) [16fx, 6-(2-Ethynyl-pyrrolidine-1-carbonyl)-3,4-dihydro-1H-pyrrolo[2,1-c][1,4]oxazine-8-carboxylic acid ((R)-1-phenyl-propyl)-amide] |

same assay, conditions: human TASK-1 expressed in Xenopus oocytes, room temperature; read-out: IC50 value for TASK-1 inhibition

| Compound | pIC50 |
| --- | --- |
| CC[C@@H](NC(=O)c1cc(C(=O)N2CCCC2C(C)(C)C)n2c1COCC2)c1ccccc1 (stereo partly drawn) [16ex, 6-(2-tert-Butyl-pyrrolidine-1-carbonyl)-3,4-dihydro-1H-pyrrolo[2,1-c][1,4]oxazine-8-carboxylic acid ((R)-1-phenyl-propyl)-amide] | 6.74 |
| CCC(NC(=O)c1cc(C(=O)N[C@H](CC)c2ccccc2)c2n1CCOC2)c1nccs1 (stereo partly drawn) [16ij, 3,4-Dihydro-1H-pyrrolo[2,1-c][1,4]oxazine-6,8-dicarboxylic acid 8-[((R)-1-phenyl-propyl)-amide] 6-[(1-thiazol-2-yl-propyl)-amide]] | 6.77 |
| CC[C@@H](NC(=O)c1cc(C(=O)N2CCCC2)n2c1COCC2)c1ccc(F)cc1Cl [16db, 6-(Pyrrolidine-1-carbonyl)-3,4-dihydro-1H-pyrrolo[2,1-c][1,4]oxazine-8-carboxylic acid [(R)-1-(2-chloro-4-fluoro-phenyl)-propyl]-amide] | 7.05 |
| CC[C@@H](NC(=O)c1cc(C(=O)N2CCC[C@H]2C)n2c1COCC2)c1ccccc1 [16ej, 6-((R)-2-Methyl-pyrrolidine-1-carbonyl)-3,4-dihydro-1H-pyrrolo[2,1-c][1,4]oxazine-8-carboxylic acid ((R)-1-phenyl-propyl)-amide] | 6.59 |
| CC[C@@H](NC(=O)c1cc(C(=O)N[C@@H](C)c2ccc(F)cc2)n2c1COCC2)c1ncccn1 [16ef, 3,4-Dihydro-1H-pyrrolo[2,1-c][1,4]oxazine-6,8-dicarboxylic acid 6-{[(S)-1-(4-fluoro-phenyl)-ethyl]-amide} 8-[((R)-1-pyrimidin-2-yl-propyl)-amide]] | 6.09 |
| CC[C@@H](NC(=O)c1cc(C(=O)N2CCC[C@@H]2C)n2c1COCC2)c1ccc(Br)s1 [16bg, 6-((S)-2-methyl-pyrrolidine-1-carbonyl)-3,4-dihydro-1H-pyrrolo[2,1-c][1,4]oxazine-8-carboxylic acid [(R)-1-(5-bromo-thiophen-2-yl)-propyl]-amide] | 6.55 |
| O=C(N[C@H](c1ccc(F)cc1)C1CC1)c1cc(C(=O)N2CCCC2)n2c1COCC2 [16dh, 6-(Pyrrolidine-1-carbonyl)-3,4-dihydro-1H-pyrrolo[2,1-c][1,4]oxazine-8-carboxylic acid [(S)-cyclopropyl-(4-fluoro-phenyl)-methyl]-amide] | 6.54 |
| CC[C@@H](NC(=O)c1cc(C(=O)NC(C2CC2)C2CC2)n2c1COCC2)c1ccccc1 [16hb, 3,4-Dihydro-1H-pyrrolo[2,1-c][1,4]oxazine-6,8-dicarboxylic acid 6-dicyclopropylmethyl-amide 8-[((R)-1-phenyl-propyl)-amide]] | 7.89 |
| CC[C@@H](NC(=O)c1cc(C(=O)NCC(C)(C)C)n2c1COCC2)c1ccccc1 [16go, 3,4-Dihydro-1H-pyrrolo[2,1-c][1,4]oxazine-6,8-dicarboxylic acid 6-[(2,2-dimethyl-propyl)-amide] 8-[((R)-1-phenyl-propyl)-amide]] | 6.05 |
| CC[C@@H](NC(=O)c1cc(C(=O)N(CCO)CC2CC2)n2c1COCC2)c1ccccc1 [16hk, 3,4-Dihydro-1H-pyrrolo[2,1-c][1,4]oxazine-6,8-dicarboxylic acid 6-[cyclopropylmethyl-(2-hydroxy-ethyl)-amide] 8-[((R)-1-phenyl-propyl)-amide]] | 5.85 |
| CC[C@@H](NC(=O)c1cc(C(=O)N2CCC[C@@H]2C)n2c1COCC2)c1c(F)cc(C#N)cc1F [16ba, 6-((S)-2-Methyl-pyrrolidine-1-carbonyl)-3,4-dihydro-1H-pyrrolo[2,1-c][1,4]oxazine-8-carboxylic acid [(R)-1-(4-cyano-2,6-difluoro-phenyl)-propyl]-amide] | 6.85 |
| CCOC(=O)C[C@H]1CCCN1C(=O)c1cc(C(=O)N[C@H](CC)c2ccccc2)c2n1CCOC2 [16fi, {(R)-1-[8-((R)-1-Phenyl-propylcarbamoyl)-3,4-dihydro-1H-pyrrolo[2,1-c][1,4]oxazine-6-carbonyl]-pyrrolidin-2-yl}-acetic acid ethyl ester] | 6.89 |
| CC[C@@H](NC(=O)c1cc(C(=O)N2CCN(C)CC2c2ccccc2)n2c1COCC2)c1ccccc1 (stereo partly drawn) [16em, 6-(4-Methyl-2-phenyl-piperazine-1-carbonyl)-3,4-dihydro-1H-pyrrolo[2,1-c][1,4]oxazine-8-carboxylic acid ((R)-1-phenyl-propyl)-amide] | 6.22 |
| CC[C@@H](NC(=O)c1cc(C(=O)N2CCCC2c2ccn(C)n2)n2c1COCC2)c1ccccc1 (stereo partly drawn) [16fv, 6-[2-(1-Methyl-1H-pyrazol-3-yl)-pyrrolidine-1-carbonyl]-3,4-dihydro-1H-pyrrolo[2,1-c][1,4]oxazine-8-carboxylic acid ((R)-1-phenyl-propyl)-amide] | 6.04 |

Now from value to compound:

| pIC50 | Compound |
| --- | --- |
| 6.57 | CC[C@@H](NC(=O)c1cc(C(=O)N2CC[C@H](OC)C2)n2c1COCC2)c1ccc(F)cc1Cl [16nn, 6-((S)-3-Methoxy-pyrrolidine-1-carbonyl)-3,4-dihydro-1H-pyrrolo[2,1-c][1,4]oxazine-8-carboxylic acid [(R)-1-(2-chloro-4-fluoro-phenyl)-propyl]-amide] |
| 6.92 | CC[C@@H](NC(=O)c1cc(C(=O)N2CCC[C@@H]2c2ccccc2)n2c1CCCC2)c1ccccc1 [16mm, 3-((R)-2-Phenyl-pyrrolidine-1-carbonyl)-5,6,7,8-tetrahydro-indolizine-1-carboxylic acid ((R)-1-phenyl-propyl)-amide] |
| 6.49 | CC[C@@H](NC(=O)c1cc(C(=O)N[C@H](CC)c2ccccc2)n2c1SCC2)c1ccccc1 [16kv, 2,3-Dihydro-pyrrolo[2,1-b]thiazole-5,7-dicarboxylic acid bis-[((R)-1-phenyl-propyl)-amide]] |
| 7.04 | C[C@@H](NC(=O)c1cc(C(=O)N2CCC[C@@H]2C)n2c1CCCC2)c1ccc(Cl)cc1 [16ly, 3-((S)-2-Methyl-pyrrolidine-1-carbonyl)-5,6,7,8-tetrahydro-indolizine-1-carboxylic acid [(R)-1-(4-chloro-phenyl)-ethyl]-amide] |
| 5.49 | CC[C@@H](NC(=O)c1cc(C(=O)NCc2c(C)noc2C)c2n1CCOC2)c1ccccc1 [16jl, 3,4-Dihydro-1H-pyrrolo[2,1-c][1,4]oxazine-6,8-dicarboxylic acid 8-[(3,5-dimethyl-isoxazol-4-ylmethyl)-amide] 6-[((R)-1-phenyl-propyl)-amide]] |
| 7.02 | CC[C@@H](NC(=O)c1cc(C(=O)N[C@H](C)c2ccc(F)cc2)c2n1CSC2)c1ccccc1 [16kw, 1H-Pyrrolo[1,2-c]thiazole-5,7-dicarboxylic acid 7-{[(R)-1-(4-fluoro-phenyl)-ethyl]-amide} 5-[((R)-1-phenyl-propyl)-amide]] |
| 6.57 | CC(C)[C@@H](NC(=O)c1cc(C(=O)N2CCCC2)c2n1CCOC2)c1ccc(F)cc1 [16lm, 8-(Pyrrolidine-1-carbonyl)-3,4-dihydro-1H-pyrrolo[2,1-c][1,4]oxazine-6-carboxylic acid [(R)-1-(4-fluoro-phenyl)-2-methyl-propyl]-amide] |
| 6.68 | CC[C@@H](NC(=O)c1cc(C(=O)Nc2cnoc2)c2n1CCOC2)c1ccccc1 [16jv, 3,4-Dihydro-1H-pyrrolo[2,1-c][1,4]oxazine-6,8-dicarboxylic acid 8-isoxazol-4-ylamide 6-[((R)-1-phenyl-propyl)-amide]] |
| 6.17 | CC[C@@H](NC(=O)c1cc(C(=O)NCc2ccc(F)cc2F)c2n1CCOC2)c1cccc(OC)n1 [16nt, 3,4-Dihydro-1H-pyrrolo[2,1-c][1,4]oxazine-6,8-dicarboxylic acid 8-(2,4-difluoro-benzylamide) 6-{[(R)-1-(6-methoxy-pyridin-2-yl)-propyl]-amide}] |
| 7.19 | CC[C@@H](NC(=O)c1cc(C(=O)N[C@H](CC)c2ncccn2)c2n1CCOC2)c1ccc(C(F)(F)F)cc1 [16lb, 3,4-Dihydro-1H-pyrrolo[2,1-c][1,4]oxazine-6,8-dicarboxylic acid 8-[((R)-1-pyrimidin-2-yl-propyl)-amide] 6-{[(R)-1-(4-trifluoromethyl-phenyl)-propyl]-amide}] |
| 6.03 | CC[C@@H](NC(=O)c1cc(C(=O)Nc2nc(C)c(C)s2)c2n1CCOC2)c1ccccc1 [16ju, 3,4-Dihydro-1H-pyrrolo[2,1-c][1,4]oxazine-6,8-dicarboxylic acid 8-[(4,5-dimethyl-thiazol-2-yl)-amide] 6-[((R)-1-phenyl-propyl)-amide]] |
| 6.00 | CC[C@@H](NC(=O)c1cc(C(=O)N2CCC[C@@H]2C)n2c1COCC2)c1cnc(C#N)c(Cl)c1 [16rf, 6-((S)-2-Methyl-pyrrolidine-1-carbonyl)-3,4-dihydro-1H-pyrrolo[2,1-c][1,4]oxazine-8-carboxylic acid [(R)-1-(5-chloro-6-cyano-pyridin-3-yl)-propyl]-amide] |
